The values below come from patent US20140242707A1, “Compositions and Methods for Diagnosing Hypercoagulability and Hypocoagulability” (Philadelphia Health & Education Corporation d/b/a Drexel …, priority 2011, published 2014).

One test deals with ear bleeding time. To be noted: CORM-2 intravenously, cited from earlier work.
The test system of a further test is Pooled normal plasma. The test can be described thus: Thrombelastography of tissue factor-activated pooled normal plasma (Example 1). Type of test: biochemical, human. The procedure:
Pooled normal plasma (George King Bio-Medical, Overland Park, Kans., USA) anticoagulated with sodium citrate was utilized for experimentation. The lot of plasma used for all experimentation was #1853, with a prothrombin time of 12.3 sec, an activated partial thromboplastin time of 29.3 sec, and a fibrinogen concentration >250 mg/dl. The final volume for all subsequently described plasma sample mixtures was 359.2 μl. Sample composition consisted of 322 μl of plasma; 10 μl of tissue factor reagent (0.1% final concentration in dH2O; Instrumentation Laboratory, Lexington, Mass., USA), 3.6 μl of dH2O or dH2O containing the organic reductant phenylhydroxylamine (PHA, 0-30 mM final concentration, Sigma-Aldrich, Saint Louis, Mo., USA), 3.6 μl of dimethyl sulfoxide (DMSO) or DMSO with CORM-2 (0-400 μM final concentration; Sigma-Aldrich) and 20 μl of 200 mM CaCl2. PHA was chosen as the agent to convert fibrinogen-associated, heme-bound Fe^+2 to an Fe^+3 state (1978, Castro et al., Biochemistry 17:225-231; 1986, Harrison and Jollow, J Pharmacol Exp Ther 238:1045-1054; 1987, Harrison and Jollow, Mol Pharmacol 32:423-431; 1999, Ciccoli et al., Toxicol Lett 110:57-66). Stock solutions of CORM-2 were made just before each experiment. Tissue factor stock solution was kept on ice prior to use and was remade every two hours.
Plasma sample mixtures were placed in a disposable cup in a computer-controlled thrombelastograph hemostasis system (Model 5000, Haemoscope Corp., Niles, Ill., USA), with addition of CaCl2 as the last step to initiate clotting. Data were collected for 15 min at 37° C. Given that final clot strength is the sine quo non of fibrinogen concentration in plasma (2005, Nielsen et al., Acta Anaesthesiol Scand 49:222-231), and that elastic modulus (G, dyne/cm^2) is a measure of strength that can be determined by all commercially available thrombelastographs/thromboelastometers, G values were subsequently recorded for all samples.
Additional elastic modulus-based parameters previously described were determined for some of the experiments (2009, Nielsen et al., Fibrinolysis 20: 377-380; Nielsen et al., in press, Fibrinolysis; 2005, Nielsen et al., Acta Anaesthesiol Scand 49: 222-231; 2009, Nielsen et al., Blood Coagul Fibrinolysis 20: 448-455). The nomenclature used to describe these phenomena is as follows:
Time to maximum rate of thrombus generation (TMRTG): This is the time interval (min) observed prior to maximum speed of clot growth.
Maximum rate of thrombus generation (MRTG): This is the maximum velocity of clot growth observed (dynes/cm^2/sec).
Total Thrombus Generation (TTG): This is the total area under the velocity curve during clot growth (dynes/cm^2), representing the amount of clot strength generated during clot growth.
Thrombelastographic data are presented as mean±SD. Analyses of the effects of PHA before and after CORM-2 addition to plasma were conducted with one way analysis of variance with Holm-Sidak post hoc test (SigmaStat 3.1, Systat Software, Inc., San Jose, Calif., USA). Comparison between plasma exposed to 10 or 30 mM PHA was performed with an unpaired Student's t-test. The plasmatic strength response to increasing concentrations of CORM-2 was analyzed with one way analysis of variance with Holm-Sidakpost hoc test. Graphical representation of the data was generated with commercially available software (Origin 7.5, OriginLab Corp., Northampton, Mass., USA). A P value of <0.05 was considered significant.

For the next test, the system named is human or rabbit plasma. To be noted: 100 μM CORM-2, humans or rabbits; cited from earlier work.

Like-named read-outs stand apart in the source and are kept apart here.

As for `[C-]#[O+].[C-]#[O+].[C-]#[O+].[C-]#[O+].[C-]#[O+].[C-]#[O+].[Cl][Ru][Cl].[Cl][Ru][Cl]` [CORM-2, tricarbonyldichlororuthenium (II) dimer], the ear bleeding time result with ear bleeding time (rabbits administered intravenous tPA) is reported as “near normal”. For the same molecule, in the test with ear bleeding time (rabbits with platelet inhibition by aspirin and clopidogrel), the ear bleeding time entry was “normal”. For the same molecule, the “elastic modulus (G), concentration-response” value in the test on Pooled normal plasma (0-200 μM CORM-2, 5 min, no PHA) is reported as “sigmoidal increase”. In the test with Pooled normal plasma (100 μM CORM-2), this molecule came in with an MRTG of 12.4 ± 1.4 dynes/cm^2/sec, a TMRTG of 2.46 ± 0.15 min and a TTG of 272 ± 21 dynes/cm^2. The “elastic modulus (G)” value in the test on Pooled normal plasma (100 μM CORM-2 vs unexposed plasma) is “significantly increased”. Further, the “difference in G, 200 μM vs 100 μM CORM-2” value in the test on Pooled normal plasma (no PHA) was 10.1%. In the test with Pooled normal plasma (plasma exposed to 30 mM PHA 2 min, then 100, 200 or 400 μM CORM-2 5 min), the “elastic modulus (G)” value is given as “no significant increase”. In addition, in the test on human or rabbit plasma, the “increase in MRTG” value is reported as 64-100% and the “increase in TTG” value was 51-68%.
Consider `ONc1ccccc1` [PHA, phenylhydroxylamine], for which the “elastic modulus (G)” value is reported as “significantly smaller than plasma not exposed to either compound” with Pooled normal plasma (PHA 10 mM 2 min prior to 100 μM CORM-2); “less than the other three conditions” in the test on Pooled normal plasma (PHA 10 mM alone); “not different from plasma not exposed to either compound” in the test on Pooled normal plasma (PHA 30 mM added 5 min after 100 μM CORM-2); “significantly less than the other three conditions” with Pooled normal plasma (PHA 30 mM alone); “negligible effects” in the test on Pooled normal plasma (PHA 10 or 20 mM added 5 min after 100 μM CORM-2). Besides, the MRTG in the test on Pooled normal plasma (PHA 10 mM alone) came out at 3.6 ± 0.9 dynes/cm^2/sec; in the test with Pooled normal plasma (PHA 30 mM alone) it was 3.9 ± 0.8 dynes/cm^2/sec. Besides, the TMRTG with Pooled normal plasma (PHA 10 mM alone) worked out at 3.59 ± 0.60 min; in the test with Pooled normal plasma (PHA 30 mM alone), 3.91 ± 0.70 min. The TTG in the test with Pooled normal plasma (PHA 10 mM alone) turned out to be 99 ± 11 dynes/cm^2; in the test on Pooled normal plasma (PHA 30 mM alone) it was 106 ± 8 dynes/cm^2. The “elastic modulus (G), reduction of CORM-2 mediated increase” value in the test on Pooled normal plasma (PHA 1 or 5 mM 2 min prior to 100 μM CORM-2) is “little effect”.
